Here are results for 22 molecules from US10087178B2, “Substituted spiropyrido[1,2-a]pyrazine derivative and medicinal use thereof as HIV integrase inhibitor” (priority 2012, dated 2018).

By EC50 is commonly meant the concentration at which the effect is half-maximal.

Structures can show the parent of a compound that is named as a salt.

The test system of one experiment is HIV-1 NL4-3 strain. Briefly: Evaluation of antiviral activity: acute infection system of MT-4 cell with HIV-1 NL4-3 strain. It counts as cell-based. To be noted: Human immunodeficiency virus 1, NL43, MT4, 120 h, MT-4 cells infected with HIV-1 NL4-3 strain (MOI 0.05), cultured 5 days, Cell Titer-Glo; read-out: antiviral activity (EC50). (In ATP-based viability assays light output follows the ATP content of the culture.)
For `COC[C@H]1C[C@]2(CN(C)C(=O)c3c([O][Ca][O]c4c5n(cc(C(=O)NCc6cccc(Cl)c6F)c4=O)[C@]4(CN(C)C5=O)C[C@H](COC)C4)c(=O)c(C(=O)NCc4cccc(Cl)c4F)cn32)C1` [Example 30, Monocalcium bis[7′-(3-chloro-2-fluorobenzylcarbamoyl)-cis-3-(methoxymethyl)-2′-methyl-1′,8′-dioxo-1′,2′,3′,8′-tetrahydrospiro[cyclobutane-1,4′-pyrido[1,2-a]pyrazin]-9′-olate]], the EC50 was determined as 1.1 nM. As to `COc1ccc(CNC(=O)c2cn3c(c(O)c2=O)C(=O)N(C)C[C@]32C[C@H](CO)C2)c(F)c1Cl` [Example S50, N-(3-chloro-2-fluoro-4-methoxybenzyl)-9′-hydroxy- cis-3-(hydroxymethyl)-2′-methyl-1′,8′-dioxo-1′,2′,3′,8′-tetrahydrospiro[cyclobutane-1,4′-pyrido[1,2-a]pyrazine]-7′-carboxamide], the EC50 stood at 37 nM. Same read-out and setting: the result for `CC(C)N1C[C@]2(C[C@H](C(=O)N(C)C)C2)n2cc(C(=O)NCc3ccc(F)cc3F)c(=O)c(O)c2C1=O` [Example S31, N^7′-(2,4-difluorobenzyl)-9′-hydroxy-2′-isopropyl-N^3-N^3-dimethyl-1′,8′-dioxo-1′,2′,3′,8′-tetrahydrospiro[cyclobutane-1,4′-pyrido[1,2-a]pyrazine]- cis-3,7′-dicarboxamide hydrochloride] reads 24 nM. On the same count and under the same terms, the result for `CN1C(=O)c2c(O)c(=O)c(C(=O)NCc3cccc(Cl)c3F)cn2C[C@]12C[C@H]2CO` [Example T49, (1R,2R)-N-(3-chloro-2-fluorobenzyl)-9′-hydroxy-2-(hydroxymethyl)-2′-methyl-1′,8′-dioxo-1′,2′,4′,8′-tetrahydrospiro[cyclopropane-1,3′-pyrido[1,2-a]pyrazine]-7′-carboxamide] reads 7.2 nM; that for `CCN1C[C@@]2(C[C@@H]2C(=O)NC)n2cc(C(=O)NCc3ccc(F)cc3F)c(=O)c(O)c2C1=O` [Example T8, (1S,2S)-N^7′-(2,4-difluorobenzyl)-2′-ethyl-9′-hydroxy-N^2-methyl-1′,8′-dioxo-1′,2′,3′,8′-tetrahydrospiro[cylcopropane-1,4′-pyrido[1,2-a]pyrazine]-2,7′-dicarboxamide hydrochloride], 6.1 nM; that for `CCN1C[C@@]2(C[C@H]2COC)n2cc(C(=O)NCc3cccc(Cl)c3F)c(=O)c(O)c2C1=O` [Example T30, (1S,2R)-N-(3-chloro-2-fluorobenzyl)-2′-ethyl-9′-hydroxy-2-(methoxymethyl)-1′,8′-dioxo-1′,2′,3′,8′-tetrahydrospiro[cyclopropane-1,4′-pyrido[1,2-a]pyrazine]-7′-carboxamide], 4.4 nM. On to `CC(C)N1C[C@]2(C[C@@H](OS(C)(=O)=O)C2)n2cc(C(=O)NCc3ccc(F)cc3F)c(=O)c(O)c2C1=O` [Example S34, 7′-(2,4-difluorobenzylcarbamoyl)-9′-hydroxy-2′-isopropyl-1′,8′-dioxo-1′,2′,3′,8′-tetrahydrospiro[cyclobutane-1,4′-pyrido[1,2-a]pyrazine]- trans-3-yl methanesulfonate hydrochloride], for which the EC50 was 5.7 nM.

With `COC[C@H]1C[C@]2(CN(C)C(=O)c3c(OC(C)=O)c(=O)c(C(=O)NCc4cccc(Cl)c4F)cn32)C1` [Example 37, 7′-(3-chloro-2-fluorobenzylcarbamoyl)-cis-3-(methoxymethyl)-2′-methyl-1′,8′-dioxo-1′,2′,3′,8′-tetrahydrospiro[cyclobutane-1,4′-pyrido[1,2-a]pyrazin]-9′-yl acetate], the EC50 was 0.7 nM. On the same count and under the same terms, the result for `COC[C@H]1C[C@@]2(CN(C(C)C)C(=O)c3c(O)c(=O)c(C(=O)NCc4ccc(F)cc4F)cn32)C1` [Example S25, N-(2,4-difluorobenzyl)-9′-hydroxy-2′-isopropyl-trans-3-(methoxymethyl)-1′,8′-dioxo-1′,2′,3′,8′-tetrahydrospiro[cyclobutane-1,4′-pyrido[1,2-a]pyrazine]-7′-carboxamide hydrochloride] reads 7 nM; that for `CC(C)N1C[C@]2(C[C@@H](CO)C2)n2cc(C(=O)NCc3ccc(F)cc3F)c(=O)c(O)c2C1=O` [Example S24, N-(2,4-difluorobenzyl)-9′-hydroxy-trans-3-(hydroxymethyl)-2′-isopropyl-1′,8′-dioxo-1′,2′,3′,8′-tetrahydrospiro[cyclobutane-1,4′-pyrido[1,2-a]pyrazine]-7′-carboxamide hydrobromide], 16 nM.

The same experiment, now with this note: Human immunodeficiency virus 1, NL43, MT4, 120 h, antiviral activity; MT-4 cells infected with HIV-1 NL4-3 (MOI 0.05), 5 days culture, Cell Titer-Glo luminescence; read-out: EC50.
Turning to `CO[C@H]1C[C@]2(CN(C(C)C)C(=O)c3c(O)c(=O)c(C(=O)NCc4ccc(F)cc4F)cn32)C1` [Example S6, N-(2,4-difluorobenzyl)-9′-hydroxy-2′-isopropyl-cis-3-methoxy-1′,8′-dioxo-1′,2′,3′,8′-tetrahydrospiro[cyclobutane-1,4′-pyrido[1,2-a]pyrazine]-7′-carboxamide hydrochloride], the EC50 worked out at 3.7 nM. Same read-out and setting: as for `CCN1C[C@]2(C[C@@H](O)C2)n2cc(C(=O)NCc3ccc(F)cc3F)c(=O)c(O)c2C1=O` [Example S17, N-(2,4-difluorobenzyl)-2′-ethyl-trans-3,9′-dihydroxy-1′,8′-dioxo-1′,2′,3′,8′-tetrahydrospiro[cyclobutane-1,4′-pyrido[1,2-a]pyrazine]-7′-carboxamide hydrobromide], the figure is 20 nM; as for `COCCO[C@H]1C[C@@]2(CN(C(C)C)C(=O)c3c(O)c(=O)c(C(=O)NCc4ccc(F)cc4F)cn32)C1` [Example S8, N-(2,4-difluorobenzyl)-9′-hydroxy-2′-isopropyl-trans-3-(2-methoxyethoxy)-1′,8′-dioxo-1′,2′-3′,8′-tetrahydrospiro[cyclobutane-1,4′-pyrido[1,2-a]pyrazine]-7′-carboxamide hydrochloride], 5.3 nM; as for `CC(C)N1CC2(CC(O)C2)n2cc(C(=O)NCc3ccc(F)cc3F)c(=O)c(O)c2C1=O` (single isomer, unassigned) [Example S3, N-(2,4-difluorobenzyl)- trans-3,9′-dihydroxy-2′-isopropyl-1′,8′-dioxo-1′,2′,3′,8′-tetrahydrospiro[cyclobutane-1,4′-pyrido[1,2-a]pyrazine]-7′-carboxamide hydrobromide], 11 nM. On the same count and under the same terms, the result for `CCN1C[C@]2(C[C@H](OCc3ccccc3)C2)n2cc(C(=O)NCc3ccc(F)cc3F)c(=O)c(O)c2C1=O` [Example S16, cis-3-(benzyloxy)-N-(2,4-difluorobenzyl)-2′-ethyl-9′-hydroxy-1′,8′-dioxo-1′,2′,3′,8′-tetrahydrospiro[cyclobutane-1,4′-pyrido[1,2-a]pyrazine]-7′-carboxamide hydrochloride] reads 7.8 nM.

The experiment is the same for the next values; noted with them: Human immunodeficiency virus 1, NL43, MT4, 120 h, read-out: antiviral activity (EC50), MT-4 cells infected with HIV-1 NL4-3 strain (MOI 0.05), cultured 5 days, Cell Titer-Glo.
`CCN1C[C@@]2(C[C@@H]2CO)n2cc(C(=O)NCc3cccc(Cl)c3F)c(=O)c(O)c2C1=O` [Example T18, (1S,2S)-N-(3-chloro-2-fluorobenzyl)-2′-ethyl-9′-hydroxy-2-(hydroxymethyl)-1′,8′-dioxo-1′,2′,3′,8′-tetrahydrospiro[cyclopropane-1,4′-pyrido[1,2-a]pyrazine]-7′-carboxamide hydrochloride]: the EC50 was 10 nM. `CCOc1ccc(CNC(=O)c2cn3c(c(O)c2=O)C(=O)N(C)C[C@@]32C[C@@H]2COC)c(F)c1Cl` [Example T37, (1S,2S)-N-(3-chloro-4-ethoxy-2-fluorobenzyl)-9′-hydroxy-2-(methoxymethyl)-2′-methyl-1′,8′-dioxo-1′,2′,3′,8′-tetrahydrospiro[cyclopropane-1,4′-pyrido[1,2-a]pyrazine]-7′-carboxamide hydrochloride]: the EC50 is 93 nM. As for `COC[C@H]1C[C@@]12CN(C)C(=O)c1c(O)c(=O)c(C(=O)NCc3ccc(OC)c(Cl)c3F)cn12` [Example T22, (1S,2S)-N-(3-chloro-2-fluoro-4-methoxybenzyl)-9′-hydroxy-2-(methoxymethyl)-2′-methyl-1′,8′-dioxo-1′,2′,3′,8′-tetrahydrospiro[cyclopropane-1,4′-pyrido[1,2-a]pyrazine]-7′-carboxamide hydrochloride], the concentration giving a half-maximal response (EC50) came out at 4.9 nM. `CCN1C[C@]2(C[C@H]2COC)n2cc(C(=O)NCc3ccc(F)cc3F)c(=O)c(O)c2C1=O` [Example T9, (1R,2R)-N-(2,4-difluorobenzyl)-2′-ethyl-9′-hydroxy-2-(methoxymethyl)-1′,8′-dioxo-1′,2′,3′,8′-tetrahydrospiro[cyclopropane-1,4′-pyrido[1,2-a]pyrazine]-7′-carboxamide hydrochloride]: the EC50 came to 5.8 nM. The same measure, in the same setting: the result for `COC[C@@H]1C[C@]12Cn1cc(C(=O)NCc3cccc(Cl)c3F)c(=O)c(O)c1C(=O)N2C` [Example T50, (1R,2R)-N-(3-chloro-2-fluorobenzyl)-9′-hydroxy-2-(methoxymethyl)-2′-methyl-1′,8′-dioxo-1′,2′,4′,8′-tetrahydrospiro[cyclopropane-1,3′-pyrido[1,2-a]pyrazine]-7′-carboxamide hydrochloride] reads 3.7 nM.

The experiment is the same for the next values; noted with them: Human immunodeficiency virus 1, NL43, MT4, 120 h; read-out: antiviral activity (EC50).
Consider `COC[C@H]1C[C@]2(CN(C)C(=O)c3c(OC(=O)/C=C/C(=O)O)c(=O)c(C(=O)NCc4cccc(Cl)c4F)cn32)C1` [Example 39, (E)-4-[7′-(3-chloro-2-fluorobenzylcarbamoyl)-cis-3-(methoxymethyl)-2′-methyl-1′,8′-dioxo-1′,2′,3′,8′-tetrahydrospiro[cyclobutane-1,4′-pyrido[1,2-a]pyrazin]-9′-yloxy]-4-oxobut-2-enoic acid], for which the EC50 is 1.4 nM.

Still in this experiment, the particulars now being: MT-4 cells infected with HIV-1 NL4-3 strain (MOI 0.05), cultured 5 days, Cell Titer-Glo; read-out: antiviral activity (EC50).
Consider “N-(3-chloro-2-fluorobenzyl)- 9′-hydroxy-cis-3-methoxy-2′- methyl-1′,8′-dioxo- 1′,2′,4′,8′- tetrahydrospiro[cyclobutane- 1,3′-pyrido[1,2-a]pyrazine]- 7′-carboxamide hydrochloride [Example S63]”, for which the EC50 was determined as 4 nM.
